Assay results published in patent publication US20240246905A1 (University of Leicester, priority 2021, published 2024).
Read-outs that look alike come from different tables or passages of the source.

What was measured:
C. glabrata ATCC 90030 = assay: Anti-fungal MIC (CO-ADD); format: cell-based
Method: (§1) Fungal strains were cultured for 3 days on Yeast Extract-Peptone Dextrose (YPD) agar at 30° C. A yeast suspension of 1×10^6 to 5×10^6 CFU/mL (as determined by OD530) was prepared from five colonies. […] All plates were covered and incubated at 35° C. for 36 hours without shaking. […] The absorbance was measured using a Biotek Multiflo Synergy HTX plate reader. In both cases, the percentage of growth inhibition was calculated for each well, using the negative control (media only) and positive control (fungi without inhibitors) on the same plate. […] Due to a higher variance in growth and inhibition, a lower threshold was applied to the data for C. neoformans. In addition, the maximal percentage of growth inhibition is reported as DMax, indicating any compounds with marginal activity.

C. albicans ATCC 90028 = assay: Anti-fungal MIC (CO-ADD); format: cell-based
Method: as §1

[1] = test system: C. neoformans H99; ATCC 208821; assay: Anti-fungal MIC (CO-ADD); format: cell-based
Method: as §1

C. tropicalis ATCC 750 = assay: Anti-fungal MIC (CO-ADD); format: cell-based
Method: as §1

C. tropicalis ATCC 450 = assay: Anti-fungal MIC (CO-ADD); format: cell-based
Method: as §1

[2] = test system: C. deuterogattii ATCC 32609; assay: Anti-fungal MIC (CO-ADD); format: cell-based
Method: as §1

[3] = test system: MRSA 252, MSSA 476, S. aureus 15981, P. aeruginosa PA01 and E. coli DH5α; assay: Disc diffusion primary screening, five strains (statements in words); format: cell-based; details: 500 μg/mL
Method: As such, the minimum inhibition concentration (MICs) of biologically active compounds were further assessed using the broth dilution method against the S. aureus strains; MRSA 252 and MSSA 476 (Table 1). The results of both assays enabled key structural elements and functional groups required for the compounds to retain their antibiotic activity to be identified.
The antibiotic activity was determined using a Kirby-Bauer method according to Clinical Standard Laboratory Institute (CSLI) Guidelines (2017). Briefly, 180 μL of a 1 in 200 dilution (in LB or TSB) of overnight cultures of selected Gram negative and Gram positive bacteria were applied to an agar plate containing the solid growth medium, Mueller-Hinton agar (MHA). Sterile discs, inoculated with 50 μL of antibiotic, were first added to the agar plate before the plates were incubated for 24 hours at 37° C. Following incubation, the zone of inhibition (if it existed) was recorded.

MRSA 252 = assay: MIC before and after cysteine addition; format: cell-based, S. aureus; details: up to 24 hours
Text: It is well known that compounds bearing an isocyanide group are usually highly reactive, capable of reacting with electrophiles, nucleophiles and radicals.^(30) As a result, it was important to identify any stability issues which might be encountered by the lead compounds, both in storage and in the presence of glutathione and cysteine. […] Another common feature of the lead compounds is the vinyl fragment. It was hypothesized that the presence of glutathione and cysteine found in eukaryotic cells could potentially interact with the electrophilic alkene group in the compounds, thus shutting down their antibiotic activity. To probe this potentially detrimental in vivo process, compound 39 was subjected to glutathione for up to 24 hours whilst compound 41 was added to cysteine for the same length of time.

[4] = test system: Pseudomonas aeruginosa PA01; assay: Disc diffusion (Kirby-Bauer), zone of inhibition; format: cell-based; details: 500 μg/mL, '/' = no zone
Procedure, shortened: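 Zones of inhibition recorded after 24 h at 37 °C on Mueller-Hinton agar. Agar was inoculated with 1 in 200 diluted 18 h broth cultures, and discs carried 50 μL of antibiotic. Method follows CLSI 2017 disc diffusion.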

S. aureus SH1000 cells = assay: DiSC3(5) membrane potential assay; format: cell-based; details: 16 μg/mL, 180 minutes
Method: We next looked to further confirm the cell membrane as being the target site of action for our compounds, by undertaking a membrane depolarization assay using the voltage sensitive dye, 3,3′-dipropylthiacarbocyanine iodide (DiSC3(5)).
[…] Cultures of SH1000 were grown to OD600 of 0.2 before being incubated further with 0.1 M KCl and 2 μM DiSC3(5) for 30 minutes at 37° C. […] Subsequently, the cells were centrifuged and 1 mL of supernatant mixed with 1 mL DMSO; the centrifuged pellet was lysed in DMSO for 10 minutes and added to equal volumes of HEPES and glucose buffer. Extracellular and intracellular fluorescence was measured on a LS 45 luminescence spectrometer (PerkinElmer) at an excitation and emission of 622 nm and 670 nm respectively. Consequently, the membrane potential was calculated using the Nernst equation and expressed as a percentage of the initial value.

[5] = Acid stability in 1M acetic acid (NMR, IR); format: physicochemical; details: 6 hours in 1M acetic acid (pH 2.37)
Method: Also, well documented in the literature, is the hydrolysis of isocyanide compounds to their corresponding formamide in acidic conditions. Due to the acidic conditions present in the stomach it was important to identify whether the lead compounds might hydrolyse to their corresponding formamide compounds in-vivo. To determine this, Compound 41 was stirred for 6 hours in 1M acetic acid (pH 2.37), mimicking the length of time oral drugs are present in the stomach. The NMR data obtained after 6 hours was identical to that of compound 41 before the assay (FIG. 18). In addition to the NMR, IR analysis further confirmed the presence of the isocyanide group post treatment with acid, as shown by the sharp signal at approximately 2100 cm^−1.

S. aureus AS 68 biofilm = assay: Biofilm eradication, 24 hour old biofilms, crystal violet; format: cell-based
Method: The attenuation of biomass by the lead compounds in the 24 hour old biofilms was measured by crystal violet stain assay. […] Further assays were performed to study the biofilm attenuation properties of compound 41. At concentrations, as low as 2 μg/ml (the lowest concentration tested), there was still an 86% reduction of the biofilm depth (FIG. 4).
Eradication: To develop biofilms, 2.5 μL of an overnight culture of bacteria was added to individual wells in a 96-well plate each containing 100 μL TSB supplemented with 0.5% glucose and incubated at 37° C. for 24 hours. Following this, the medium in each well was first discarded and washed once with PBS before set concentrations of antibiotic was added and incubated at 37° C. for a further 18 hours. The medium in each well was then discarded, washed 4× with PBS before 150 μL 1% crystal violet was added and the plate was left to incubate at room temperature for a further 30 minutes. Following incubation, the medium in each well was first discarded before being washed 4× with PBS. 200 μL 7% acetic acid was then added and the wells were measured at OD595.

[6] = Nakaseomyces glabratus, ATCC90030, read-out: MIC
[7] = Candida albicans, ATCC90028, read-out: MIC
[8] = Cryptococcus neoformans, ATCC208821, read-out: MIC
[9] = Candida tropicalis, ATCC750, read-out: MIC
[10] = Candida tropicalis, ATCC450, read-out: MIC

Molecule	MIC (C. glabrata ATCC 90030; [6]) [µg/mL]	MIC (C. albicans ATCC 90028; [7]) [µg/mL]	MIC [1, 8] [µg/mL]	MIC (C. tropicalis ATCC 750; [9]) [µg/mL]	MIC (C. tropicalis ATCC 450; [10]) [µg/mL]	MIC ([2]; read-out: MIC) [µg/mL]	antibiotic activity in disc diffusion assays (in words) [3]	MIC in the presence of cysteine (MRSA 252)	zone of inhibition at 500 µg/mL [4] [mm]	reduction in the proton motive force (S. aureus SH1000 cells) [%]	NMR data after acid exposure [5]	reduction of the biofilm depth (S. aureus AS 68 biofilm; S. aureus AS 68, 2 μg/ml (the lowest concentration tested)) [%]	attenuation of biomass in 24 hour old biofilms (S. aureus AS 68 biofilm; S. aureus AS 68, 50 μg/mL, crystal violet)	MIC (C. glabrata ATCC 90030) [µg/mL]	MIC (C. albicans ATCC 90028) [µg/mL]	MIC [1] [µg/mL]	MIC (C. tropicalis ATCC 750) [µg/mL]	MIC (C. tropicalis ATCC 450) [µg/mL]	MIC [2] [µg/mL]
[C-]#[N+]C=Cc1cc(Br)ccc1O [Compound 13]	> 32	4 to 8	4 to 8	16	4	4	–	–	–	–	–	–	–	–	–	–	–	–	–
[C-]#[N+]C=Cc1ccc(O)c(Br)c1 [Compound 14]	> 32	32	> 32	> 32	> 32	32	–	–	–	–	–	–	–	–	–	–	–	–	–
[C-]#[N+]/C=C/c1ccc(O)cc1/C=C/c1ccccc1 [Compound 36, 4-((E Z)-2-Isocyanovinyl)-3-((E)-styryl)phenol]	32	16	4 to 8	32	2	2	retained antibiotic activity	–	–	–	–	–	–	–	–	–	–	–	–
[C-]#[N+]/C=C/c1ccc(NC(C)=O)cc1/C=C/c1ccccc1 [Compound 41, N-(4-((E)-2-Isocyanovinyl)-3-((E)-styryl)phenyl)acetamide]	32	2 to 4	2	32	1 to 2	1 to 2	excellent activity against all three S. aureus strains, as well as P. aeruginosa PAO1	remained unaffected	16	70	identical	86	significant attenuation in biomass	–	–	–	–	–	–
(2-Isocyanovinyl)-4-acetaamido benzene [Compound 22]	–	–	–	–	–	–	–	–	–	–	–	–	–	>32	16	>32	>32	>32	>32
